Values joined by “and” are separate entries in the source; they are usually repeats but may differ in a detail not shown here. Identical values can stand only once. Like-named read-outs stand apart in the source and are kept apart here.
Key:
[1] = system: leukemia cells; conditions: cited from earlier work
[2] = system: xenografted carcinoma cells; conditions: intraperitoneal; local illumination of skin; cited from earlier work
[3] = cited from earlier work
[4] = system: normal PBMC; test: Lymphocyte proliferation (3H-TdR incorporation), ConA-stimulated PBMC from normal human subject; format: cell-based; conditions: for IC50: read-out: IC50 of ConA-induced cell proliferation; for IC100: 72 h, read-out: concentration at which proliferation was completely inhibited
Source text: (§1) In two of the types of lymphocytes, the mitogen, ConA, was used to induce proliferation, as described (Fox et al., 1993, Cell. Immunol. 150:45-58). The third type of lymphocytes used in this example proliferated actively in vitro without the need for mitogenic stimulation. The three types of lymphocytes which were used in this example were: PBMC obtained from a normal human subject and stimulated with ConA; PBMC, including malignant CD4+ T-lymphocytes, obtained from a human subject having CTCL and stimulated with ConA; and PBMC obtained from a normal human subject, which PBMC were exposed to Epstein-Barr virus (EBV) after being obtained from the subject, to produce transformed lymphocytes. It is known that EBV-transformed B-lymphocytes proliferate actively in vitro (Polack, 1996, Proc. Natl. Acad. Sci. U.S.A. 93:10411-10416; Longnecker, 1994, Leukemia 8:546-550).
(§2) Peripheral blood mononuclear cells (PBMC) were obtained by separating them from whole blood, using Ficoll-Paque separation techniques and media (Boyum, 1964, Nature 793-794). After they were obtained, PBMC were resuspended in RPMI 1640 medium, which comprised 10% (v/v) fetal bovine serum (GIBCO, Grand Island, N.Y.), and were distributed into the wells of 96-well microtiter plates. PBMC transformed using EBV were made as described (Neitzel, 1986, Hum. Gen. 73:320-326)
(§3) This stock solution stored at 4° C. in the dark. A stock solution comprising 462.5 μM 8-methoxypsoralen (8-MOP) was prepared in 2% (v/v) benzyl alcohol. 8-MOP was obtained from Sigma (St. Louis, Mo.).
(§4) In cultures of transformed leukocytes in which 8-MOP was used, the concentrations of 8-MOP which were used were 92.5 μM, 18.5 μM, 3.7 μM, 0.74 μM, 0.15 μM, and 0.030 μM. Thereafter, ConA was then added to preselected wells to achieve a final concentration of 10 μg/ml of ConA in those wells.
(§5) Following preparation of the microtiter culture plates, preselected plates were illuminated with fluorescent visible light for 10-30 minutes, using four fluorescent bulbs (type F15T8CW, TFC Inc., Taiwan) spaced at a distance of 9 cm above the plates. Other preselected plates were illuminated with 0.5-2 Joules per square centimeter UV-A light using a UV-A light box containing 8 UVAR 06-91 bulbs. Still other preselected plates were not exposed to light. The covers of plates which were exposed to light were left in place during illumination.
(§6) Following illumination, plates which had been illuminated were placed into a dark incubator which was maintained at 37° C. Non-illuminated plates were placed into the incubator immediately after preparation. All plates were incubated for seventy-two hours. During the final eighteen hours of incubation, tritiated thymidine (^3 H-TdR) was added to each well of each plate. No extraordinary precautions were used to prevent light exposure during the addition of ^3 H-TdR.
(§7) Lymphocyte proliferation was assessed by measuring the extent of incorporation of ^3 H-TdR into newly synthesized DNA within the cells at the end of the seventy-two hour incubation period, as described (Fox, 1993, Cell. Immunol. 150:45-58).

[5] = system: leukocytes; conditions: photoactivated; cited from earlier work
[6] = system: viruses; conditions: photoactivated; in vitro; cited from earlier work
[7] = system: enveloped virus; conditions: hypericin photoactivated prior to treatment of virus; cited from earlier work
[8] = system: glioma cells; conditions: in vitro; cited from earlier work
[9] = Absorbance spectrum / photoactivation wavelength; format: physicochemical; conditions: 20 μM hypericin in phosphate-buffered saline
Source text: Absorbance maxima which were observed included maxima at 327 nm, 563 nm, and 603 nm.

[10] = photoreaction; cited from earlier work
[11] = system: neoplastic ("CTL") PBMC; test: Lymphocyte proliferation (3H-TdR incorporation), ConA-stimulated neoplastic PBMC from subject having CTCL; format: cell-based, human; conditions: for IC50: read-out: IC50 of ConA-induced cell proliferation
Source text: as §1, §2, §3, §4, §5, §6, §7

[12] = system: protein kinase; conditions: cited from earlier work
[13] = system: PBMC obtained from a normal human subject; test: Induction of apoptosis in normal PBMC, TUNEL assay (Example 3); format: cell-based; conditions: for percentage of PBMC which underwent apoptosis: Normal, 18 h; for capability of inducing apoptosis: normal leukocytes, visible light
[14] = system: PBMC from a patient to whom 8-MOP had been administered; test: ConA-induced proliferation of PBMC from a patient to whom 8-MOP had been administered, visible light; format: cell-based, human; conditions: 20 min
Experimental: PBMC from a patient to whom 8-MOP had been administered were illuminated for 20 minutes using the bank of visible fluorescent lights used in the experiments described in this example. Proliferation of these cells in response to ConA was measured.

[15] = Homo sapiens, PBMC, 10 min, visible light, 10 min
[16] = Homo sapiens, PBMC, 20 min, visible light, 20 min
[17] = Homo sapiens, PBMC, UV-A, 0.5 J/sc
[18] = Homo sapiens, PBMC, UV-A, 1 J/sc
[19] = Homo sapiens, PBMC, not illuminated, benzyl alcohol vehicle itself inhibitory at highest concentrations
[20] = Homo sapiens, PBMC, 0.5 h, visible light, 30 min

## Cc1cc(O)c2c(=O)c3c(O)cc(O)c4c5c(O)cc(O)c6c(=O)c7c(O)cc(C)c8c1c2c(c34)c(c78)c65 [hypericin, 1,3,4,6,8,13-Hexahydroxy-10,11,dimethyl-phenanthro[1,10,9,8,-opqra]perylene-7,14-dione]
[1]
  inhibition of proliferation: incapable of inhibiting proliferation of leukemia cells
[2]
  inhibition of proliferation of xenografted carcinoma cells: inhibited proliferation of these carcinoma cells
[3]; after systemic administration
  presence in skin: demonstrated in skin after systemic administration
[3]; following administration to mammals
  presence in blood plasma: remains in the blood plasma
[3]; in vivo
  half life: 20 to 24 h
[4]; [15]
  IC50: 0.76 µM
[4]; [16]
  IC50: 0.11 µM
[4]; Homo sapiens, PBMC, visible light, 10 min
  IC100: 3.2 µM
[4]; Homo sapiens, PBMC, visible light, 20 min
  IC100: 0.64 µM
[4]; [17]
  IC50: 4.6 µM
[4]; [18]
  IC50: 2.1 µM
[4]; [19]
  IC50: 22 µM
[4]; normal PBMC
  inhibition of mitogen-induced proliferation: inhibits mitogen-induced proliferation of PBMC
[4]; not illuminated, benzyl alcohol vehicle itself inhibitory at highest concentrations
  IC50: 23.2 µM
[4]; visible light 30 min, relative to shorter illumination
  effect of 30 min illumination on inhibition of proliferation: did not significantly increase inhibition of cell proliferation
[4]; visible light, 10 min
  IC50: 0.68 µM and 0.8 µM
[4]; visible light, 20 min
  IC50: 0.18 µM and 0.1 µM
[5]
  effect on leukocytes: no effect of hypericin on leukocytes
[6]
  inactivation of viruses in blood compositions: could be used to inactivate viruses in blood compositions in vitro
[7]
  effect on enveloped virus: reduce the infectious titer of the enveloped virus, but did not inactivate the virus
[8]
  effect of light on antiproliferative effects: only slightly enhance hypericin's antiproliferative effects on glioma cells
[9]
  absorbance maximum: 327 nm and 563 nm and 603 nm
[10]
  singlet oxygen production: produce singlet oxygen
[11]; [15]
  IC50: 0.4 µM
[11]; [16]
  IC50: 0.34 µM
[11]; Homo sapiens, PBMC, 72 h, visible light, 20 min, read-out: concentration at which proliferation was completely inhibited
  IC100: 3.2 µM
[11]; [17]
  IC50: 1.8 µM
[11]; [18]
  IC50: 0.57 µM
[11]; malignant PBMC
  inhibition of mitogen-induced proliferation: inhibits mitogen-induced proliferation of PBMC
[11]; visible light, 20 min
  IC50: 0.53 µM and 0.3 µM
[12]
  protein kinase inhibition: inhibits protein kinase activity
[13]; 1 μM, UV-A 2 J/cm^2
  percentage of PBMC which underwent apoptosis: 21.2 percentage
[13]; 1 μM, no light
  percentage of PBMC which underwent apoptosis: 4.8 percentage
[13]; 1 μM, visible light 20 min
  percentage of PBMC which underwent apoptosis: 18.2 percentage
[13]; 10 μM, UV-A 2 J/cm^2
  percentage of PBMC which underwent apoptosis: 37.3 percentage
[13]; 10 μM, no light
  percentage of PBMC which underwent apoptosis: 5.4 percentage
[13]; 10 μM, visible light 20 min
  percentage of PBMC which underwent apoptosis: 87.9 percentage
[13]
  capability of inducing apoptosis: capable of inducing apoptosis in both normal and malignant leukocytes

## COc1c2occc2cc2ccc(=O)oc12 [8-MOP, 8-methoxypsoralen]
[4]; [15]
  IC50: 33.5 µM
[4]; [16]
  IC50: 33.5 µM
[4]; [20]
  IC50: 33.5 µM
[4]; [17]
  IC50: 0.96 µM
[4]; [18]
  IC50: 0.17 µM
[4]; Homo sapiens, PBMC, UV-A, 2 J/sc
  IC50: 0.15 µM
[4]; [19]
  IC50: 33.5 µM
[11]; [15]
  IC50: 3.6 µM
[11]; [16]
  IC50: 3.6 µM
[11]; [20]
  IC50: 3.1 µM
[11]; [17]
  IC50: 0.74 µM
[11]; [18]
  IC50: 0.2 µM
[11]; [19]
  IC50: 4.4 µM
[14]
  illumination-dependent inhibition of proliferation: No illumination-dependent inhibition of proliferation
[13]; 1 μM, UV-A 2 J/cm^2
  percentage of PBMC which underwent apoptosis: 22.9 percentage
[13]; 1 μM, no light
  percentage of PBMC which underwent apoptosis: 3.8 percentage
[13]; 1 μM, visible light 20 min
  percentage of PBMC which underwent apoptosis: 13.7 percentage
[13]; 10 μM, UV-A 2 J/cm^2
  percentage of PBMC which underwent apoptosis: 63.0 percentage
[13]; 10 μM, no light
  percentage of PBMC which underwent apoptosis: 6.8 percentage
[13]; 10 μM, visible light 20 min
  percentage of PBMC which underwent apoptosis: 15.3 percentage
[13]
  capability of inducing apoptosis: not 8-MOP, is capable of inducing apoptosis in both normal and malignant leukocytes
